{"source": "patent US20120070390A1", "about": "“Topical drug delivery system with dual carriers” (priority 2010, published 2012)", "key": {"HL-60 cells": {"tested_on": "HL-60 cells", "details": "cited from earlier work; for subsequent retinoid-induced TGM2 expression after priming by pretreatment: HL-60 cells, short exposure"}, "MRSA": {"tested_on": "MRSA", "assay": "Petri dish zone of inhibition test", "format": "cell-based, Methicillin Resistant Staph Aureus", "details": "FIG. 17, identical size drops (diameters of ZOA)"}, "Enterococcus faecalis": {"tested_on": "Enterococcus faecalis", "assay": "Petri dish zone of inhibition comparison with control agents", "format": "cell-based", "details": "FIG. 25, identical size drops"}, "[1]": {"tested_on": "MRSA infection and Grade I diabetic ulcer of the left hallux with cellulitus", "assay": "Study III: human field study, diabetic foot lesion with MRSA cellulitus", "format": "in vivo", "details": "IV, 8 days following admission, before the invention was used", "protocol": "In this embodiment, the additional ingredient to hasten a third therapeutic tissue healing effect was added. This embodiment used vitamin D in a small but medically efficacious amount."}, "[2]": {"assay": "Study I: vancomycin peaks and troughs in the patient", "format": "in vivo, human", "details": "1.5 g BID, Q12, seven doses; ranges not noted", "method": "Fri 2/5: Detection of a Strep-A strain, confirmed by culture study. Shifted from gentamycin to vancomycin 1.5 g BID, Q12. Patient was kept on this dosing regimen until 2/8 (date of discharge from hospital).\nMon 2/8: Patient received the last of seven doses of vancomycin. Throughout all of this their peaks (within 1 hour of receiving vancomycin) and troughs (before receiving vancomycin) were normal (ranges not noted here). Patient was discharged from the hospital on this date."}, "[3]": {"tested_on": "mouse embryonic stem cells and embryoid bodies", "details": "cited from earlier work"}, "Staph aureus": {"tested_on": "Staph aureus", "assay": "Petri dish zone of inhibition comparison with control agents", "format": "cell-based, Staphylococcus aureus", "details": "FIG. 16, identical size drops (diameters of ZOA)"}}, "note": "Where two headings read alike, the source gives them in different places."}
{"molecule": "vitamin D", "values": [{"measurement": "subsequent retinoid-induced TGM2 expression after priming by pretreatment", "setting": "HL-60 cells", "result": "increases subsequent retinoid-induced TGM2 expression"}, {"measurement": "amount at which desired cellular responses occurred", "setting": "HL-60 cells; vitamin D", "result": "about 100 nM"}]}
{"molecule": "CO[C@@]1(NC(=O)Cc2cccs2)C(=O)N2C(C(=O)O)=C(COC(N)=O)CS[C@@H]21", "note": "[Cefoxicillin]", "values": [{"measurement": "zones of inhibition of control agents compared with the formulations of the invention", "setting": "MRSA", "result": "considerably reduced zones of inhibition"}]}
{"molecule": "CN[C@H](CC(C)C)C(=O)N[C@H]1C(=O)N[C@@H](CC(N)=O)C(=O)N[C@H]2C(=O)N[C@H]3C(=O)N[C@H](C(=O)N[C@H](C(=O)O)c4cc(O)cc(O)c4-c4cc3ccc4O)[C@H](O)c3ccc(c(Cl)c3)Oc3cc2cc(c3O[C@@H]2O[C@H](CO)[C@@H](O)[C@H](O)[C@H]2O[C@H]2C[C@](C)(N)[C@H](O)[C@H](C)O2)Oc2ccc(cc2Cl)[C@H]1O", "note": "[Vancomycin]", "values": [{"measurement": "zones of inhibition of control agents compared with the formulations of the invention", "setting": "Enterococcus faecalis", "result": "considerably reduced zones of inhibition"}, {"measurement": "patient response to treatment", "setting": "[1]", "result": "did not respond"}, {"measurement": "peaks (within 1 hour of receiving) and troughs (before receiving)", "setting": "[2]", "result": "normal"}]}
{"molecule": "C[S+](C)[O-]", "note": "[DMSO, dimethyl sulfoxide]", "values": [{"measurement": "amount at which desired cellular responses occurred", "setting": "HL-60 cells; DMSO", "result": "less than 2%"}, {"measurement": "subsequent retinoid-induced TGM2 expression after priming by pretreatment", "setting": "HL-60 cells", "result": "increases subsequent retinoid-induced TGM2 expression"}, {"measurement": "mRNA and protein expression in epigenetic profiles", "setting": "[3]", "result": "upregulation of mRNA and protein expression"}]}
{"molecule": "CC[C@H]1OC(=O)[C@H](C)[C@@H](O[C@H]2C[C@@](C)(OC)[C@@H](O)[C@H](C)O2)[C@H](C)[C@@H](O[C@@H]2O[C@H](C)C[C@H](N(C)C)[C@H]2O)[C@](C)(O)C[C@@H](C)C(=O)[C@H](C)[C@@H](O)[C@]1(C)O", "note": "[Erythromycin]", "values": [{"measurement": "zones of inhibition of control agents compared with the formulations of the invention", "setting": "Staph aureus", "result": "considerably reduced zones of inhibition"}, {"measurement": "zones of inhibition of control agents compared with the formulations of the invention", "setting": "MRSA", "result": "considerably reduced zones of inhibition"}]}
